Earlier results, collected in US20070141147A1, “SEQUENTIAL RELEASE PHARMACEUTICAL FORMULATIONS” (Auriga Laboratories, Inc., priority 2005, published 2007).
Counter-ions that a name gives are not always drawn.

What was measured:
[1] = water and alcohol
[2] = in vivo

solubility [1]	Structure (SMILES)	plasma half-life [2]
freely soluble	CNCC(O)c1cccc(O)c1 (stereo in doubt) [Phenylephrine hydrochloride, (S)-3-hydroxy-[alpha][(methylamino)methylbenzenemethanol hydrochloride]	–
soluble	COc1ccccc1OCC(O)CO (stereo not drawn) [Guaifenesin, 3-(2-methoxyphenoxy)-1,2-propanediol]	–
–	C[N+]1(C)[C@@H]2C[C@@H](OC(=O)[C@H](CO)c3ccccc3)C[C@H]1[C@@H]1O[C@@H]12 [methscopolamine]	relatively short
